Our source for the melting point values is patent US7772271B2 (priority 2004, dated 2010).

In general, melting point refers to the temperature of the solid-liquid transition.

The compound `CCC(C)NC(=O)c1ccc2c(C#N)c(-c3ccc(NS(=O)(=O)C4CC4)cc3)n(C3CCC3)c2c1` (stereo not drawn) [Compound 2295] had a melting point of 105 to 107 °C.

On to `CC(C)NC(=O)Nc1ccc(-c2c(C#N)c3cc(Oc4ncccn4)ccc3n2C2CCC2)cc1` [Compound 2851], for which the melting point fell in the range of 140 to 145 °C.

Regarding `CC(C)(C)OC(=O)Nc1ccc(-c2c(C#N)c3ccc(OCS(C)(=O)=O)cc3n2C2CCCC2)cc1` [Compound 3066], the melting point was in the range of 237 to 241 °C.

`C[C@@H](OC(=O)Nc1ccc(-c2c(C#N)c3ccc(OCS(C)(=O)=O)cc3n2C2CC2)cc1)C(F)(F)F` [Compound 3054] returned a melting point of 190 to 196 °C.

On to `C[C@@H](OC(=O)Nc1ccc(-c2c(C#N)c3ccc(C(=O)N4CCN(C)CC4)cc3n2C2CCC2)cc1)C1CC1` [Compound 3106], for which the melting point was in the range of 104 to 106 °C.

In the case of `C=COC(=O)Nc1cccc(-c2c(C#N)c3ccc(OCC)cc3n2C2CCC2)c1` [Compound 1355], the melting point is 163 to 164 °C.

In the case of `C[C@@H](OC(=O)Nc1ccc(-c2c(C#N)c3ccc(OC4CCS(=O)(=O)CC4)cc3n2C2CCC2)cc1)C(F)(F)F` [Compound 3187], the melting point lay within 243 to 249 °C.

Turning to `C[C@@H](OC(=O)Nc1ccc(-c2c(C#N)c3ccc(Oc4ncccn4)cc3n2C2CCC2)cc1OC(F)(F)F)C1CC1` [Compound 3034], the melting point fell in the range of 80 to 81 °C.

The compound `C[C@@H](OC(=O)Nc1ccc(-c2c(C#N)c3ccc(N4CCCC4)cc3n2C2CC2)cc1)C1CC1` [Compound 2986] yielded a melting point of 197 to 202 °C.

For the compound `C[C@@H](OC(=O)Nc1ccc(-c2c(C#N)c3ccc(C(=O)O)cc3n2C2CCC2)cc1)C1CC1` [Compound 2778], the melting point was 222 to 225 °C.

As to `COc1ccnc(Oc2ccc3c(C#N)c(-c4ccc(NC(=O)O[C@H](C)C5CC5)cc4)n(C4CCC4)c3c2)n1` [Compound 2736], the melting point lay within 161 to 164 °C.

Turning to `CC(OC(=O)Nc1ccc(-c2c(C#N)c3ccc(OCCNS(C)(=O)=O)cc3n2C2CCC2)cc1)C1CC1` (stereo not drawn) [Compound 3228], the melting point is 92 to 95 °C.

For the compound `N#Cc1c(-c2ccc(NC(=O)OCC3CC3)cc2)n(C2CCC2)c2cc(OC3COCOC3)ccc12` [Compound 2860], the melting point was 197 to 198 °C.

Turning to `N#Cc1c(-c2ccc(NC(=O)O[C@@H](c3ccccc3)C(F)(F)F)cc2)n(C2CCC2)c2cc(OCC3OCCO3)ccc12` [Compound 2805], the melting point fell in the range of 174 to 175 °C.

Consider `CC(C)CS(=O)(=O)Nc1ccc(-c2c(C#N)c3ccc(C(=O)N4CCOCC4)cc3n2C2CCC2)cc1` [Compound 2901], for which the melting point fell in the range of 210 to 212 °C.

Take `N#Cc1c(-c2ccc(OC(=O)NC3CCCC3)cc2)n(C2CCC2)c2cc(OC3CCOCC3)ccc12` [Compound 2811]: the melting point lay within 168 to 169 °C.

Compound `CCNC(=O)Oc1ccc(-c2c(C#N)c3ccc(OC4CCOCC4)cc3n2CC2CC2)cc1` [Compound 2780] gave a melting point of 155 to 156 °C.

For `N#Cc1c(-c2ccc(OC(=O)N3CCCC3)cc2)n(C2CCC2)c2cc(OC3CCOCC3)ccc12` [Compound 2815], the melting point was in the range of 179 to 181 °C.

In the case of `CCN(CC)C(=O)c1ccc2c(c1)c(C#N)c(-c1ccc(NC(=O)NC(C)C)cc1)n2C1CCC1` [Compound 3136], the melting point is 250 °C (dec.).

`CCOc1ccc2c(C#N)c(-c3ccc(S(=O)(=O)N4CC[C@H](O)C4)cc3)n(C3CCC3)c2c1` [Compound 3085] came in with a melting point of 195 to 196 °C.

Turning to `CCOc1ccc2c(C#N)c(-c3ccc(S(=O)(=O)N4CCCCC4)cc3)n(C3CCC3)c2c1` [Compound 2661], the melting point was 195 to 202 °C.

`N#Cc1c(-c2ccc(Nc3ncccn3)cc2)n(CC2CC2)c2cc(OCCF)ccc12` [Compound 3251] came in with a melting point of 212 to 213 °C.

Regarding `CCCS(=O)(=O)Nc1ccc(-c2c(C#N)c3ccc(-c4ccnn4C)cc3n2C2CCC2)cc1` [Compound 3203], the melting point lay within 241 to 242 °C.

Turning to `CC(C)OC(=O)Nc1ccc(-c2c(C#N)c3ccc(OC4CCS(=O)(=O)CC4)cc3n2C2CC2)cc1` [Compound 3232], the melting point was in the range of 278 to 282 °C.

The compound `N#Cc1c(-c2ccc(NS(=O)(=O)C3CC3)cc2)n(C2CCC2)c2cc(N3CCOCC3)ccc12` [Compound 2802] had a melting point of 222 to 224 °C.

In turn, `N#Cc1c(-c2ccc(OC(=O)N3CCOCC3)cc2)n(CC2CC2)c2cc(OC3CCOCC3)ccc12` [Compound 2790] showed a melting point of 188 to 189 °C.

Consider `C[C@@H](OC(=O)Nc1ccc(-c2c(C#N)c3ccc(N4CCCC4=O)cc3n2C2CCC2)cc1)C1CC1` [Compound 3332], for which the melting point was 140 °C (dec.).

`CCN(CC)C(=O)Nc1ccc(-c2c(C#N)c3ccc(OC)cc3n2CC)cc1` [Compound 1376] gave a melting point of 165 to 167 °C.

In turn, `CCn1c(-c2ccc(NC(=O)OC(C)C)cc2)c(C#N)c2ccc(OC3CCS(=O)(=O)CC3)cc21` [Compound 3230] showed a melting point of 253 to 257 °C.

Take `C[C@@H](OC(=O)Nc1ccc(-c2c(C#N)c3ccc(OCCN4CCCC4=O)cc3n2C2CCC2)cc1)C1CC1` [Compound 3266]: the melting point is 159 to 162 °C.

As for `CC(C)Nc1ccc(-c2c(C#N)c3ccc(Oc4ncccc4F)cc3n2C2CCC2)cc1` [Compound 3004], the melting point was 188 to 190 °C.

Compound `COCCOc1ccc2c(C#N)c(-c3ccc(NC(=O)O[C@H](C)C4CC4)cc3)n(C(C)C)c2c1` [Compound 2719] registered a melting point of 88 to 100 °C.

`N#Cc1c(-c2ccc(NCC3CCCCC3)cc2)n(C2CCC2)c2cc(OC3CCOCC3)ccc12` [Compound 3123] registered a melting point of 175 to 177 °C.

`Cc1noc(C)c1-c1ccc2c(C#N)c(-c3ccc(NC(=O)O[C@H](C)C4CC4)cc3)n(C3CCC3)c2c1` [Compound 3317]: the melting point was 225 °C (dec.).

The compound `CCn1c(-c2ccc(NC(=O)OCC(C)C)cc2)c(C#N)c2ccc(OCCOC)cc21` [Compound 1370] yielded a melting point of 145 to 148 °C.

The compound `CC(C)NC(=O)Oc1ccc(-c2c(C#N)c3ccc(OC4CCOCC4)cc3n2CC2CC2)cc1` [Compound 2782] gave a melting point of 161 to 163 °C.

For `CCCS(=O)(=O)Nc1ccc(-c2c(C#N)c3ccc(Oc4nccnc4C#N)cc3n2C2CCC2)cc1C` [Compound 3288], the melting point lay within 215 to 217 °C.

`CC(C)OC(=O)Nc1ccc(-c2c(C#N)c3ccc(N4CCCCC4)cc3n2C2CCC2)cc1` [Compound 2967] showed a melting point of 208 to 213 °C.

`COCCOc1ccc2c(C#N)c(-c3ccc(C(=O)N[C@H](C)c4ccc(OC)cc4)cc3)n(C3CCC3)c2c1` [Compound 3133] returned a melting point of 156 to 157 °C.

`CCn1c(-c2ccc(NC(=O)OC(C)(C)C)cc2)c(C#N)c2ccc(N3CCN(CC4CC4)CC3)cc21` [Compound 1389] gave a melting point of 171 to 173 °C.

Consider `CCC(OC(=O)Nc1ccc(-c2c(C#N)c3ccc(OC4CCOC4)cc3n2C2CCC2)cc1)C(C)C` (stereo not drawn) [Compound 1458], for which the melting point fell in the range of 183 to 184 °C.

In the case of `N#Cc1nccnc1Oc1ccc2c(C#N)c(-c3ccc(NS(=O)(=O)NCC4CC4)cc3)n(C3CC3)c2c1` [Compound 3211], the melting point was 189 to 191 °C.

`CCN(CC)C(=O)c1ccc2c(C#N)c(-c3ccc(NS(=O)(=O)C4CC4)cc3)n(C3CCC3)c2c1` [Compound 2294]: the melting point was in the range of 205 to 207 °C.

On to `CC(C)OC(=O)Nc1ccc(-c2c(C#N)c3ccc(OCCNC4CCC4)cc3n2C2CCC2)cc1` [Compound 1434], for which the melting point was 221 to 223 °C.

`Cc1cc(Cl)ccc1Nc1ccc(-c2c(C#N)c3ccc(OC4CCOCC4)cc3n2C2CCC2)cc1` [Compound 3161] gave a melting point of 174 to 179 °C.

Turning to `COCCOc1ccc2c(C#N)c(-c3ccc(C(=O)N4CCCCC4)cc3)n(C3CCC3)c2c1` [Compound 2757], the melting point was in the range of 155 to 158 °C.

In turn, `C[C@@H](OC(=O)Nc1ccc(-c2c(C#N)c3ccc(C(=O)N(C)C)cc3n2C2CCC2)cc1)C1CC1` [Compound 2276] registered a melting point of 118 to 120 °C.

As for `N#Cc1c(-c2ccc(NC(=O)O[C@H](c3ccccc3)C(F)(F)F)cc2)n(C2CCC2)c2cc(OCC3OCCO3)ccc12` [Compound 2806], the melting point fell in the range of 175 to 176 °C.

With `N#Cc1c(-c2ccc(OC(=O)NC3CCCCC3)cc2)n(C2CCC2)c2cc(OC3CCOCC3)ccc12` [Compound 2812], the melting point is 187 to 188 °C.

In the case of `CC(C)NC(=O)Nc1ccc(-c2c(C#N)c3ccc(OC4CCOC4)cc3n2C2CCC2)cc1` (stereo not drawn) [Compound 1462], the melting point fell in the range of 183 to 184 °C.

For `Cc1csc(Nc2ccc(-c3c(C#N)c4ccc(Oc5ncccn5)cc4n3C3CC3)cc2)n1` [Compound 3268], the melting point was 223 to 225 °C.

`CCCS(=O)(=O)Nc1ccc(-c2c(C#N)c3ccc(N4CCCC4=O)cc3n2C2CCC2)cc1` [Compound 3198] registered a melting point of 279 to 282 °C.

`N#Cc1c(-c2ccc(Nc3nc(C(F)(F)F)cs3)cc2)n(C2CCC2)c2cc(OC3CCOCC3)ccc12` [Compound 3177] had a melting point of 250 to 252 °C.

On to `CC(OC(=O)Nc1ccc(-c2c(C#N)c3ccc(OC4CCOC4)cc3n2C2CCC2)cc1)C1CCCC1` (stereo not drawn) [Compound 1460], for which the melting point fell in the range of 183 to 184 °C.

The compound `CCCS(=O)(=O)Nc1ccc(-c2c(C#N)c3ccc(-c4c(C)noc4C)cc3n2C2CCC2)cc1` [Compound 2932] returned a melting point of 224 to 225 °C.

Compound `CCCS(=O)(=O)Nc1ccc(-c2c(C#N)c3ccc(Oc4ncccc4C(=O)OCC)cc3n2C2CCC2)cc1` [Compound 3308] gave a melting point of 138 to 142 °C.

Compound `C[C@@H](OC(=O)Nc1ccc(-c2c(C#N)c3ccc(OCS(C)(=O)=O)cc3n2C2CCCC2)cc1)C1CC1` [Compound 3068] registered a melting point of 218 to 224 °C.

In turn, `CCOc1ccc2c(C#N)c(-c3ccc(NC(=O)OC4CCN(S(=O)(=O)CC)CC4)cc3)n(C3CCC3)c2c1` [Compound 3070] yielded a melting point of 237 to 242 °C.

Turning to `CCCS(=O)(=O)Nc1ccc(-c2c(C#N)c3cc(C(=O)N4CCOCC4)ccc3n2C2CCC2)cc1` [Compound 3098], the melting point lay in the range of 128 to 129 °C.

`Cc1cc(C)cc(CNc2ccc(-c3c(C#N)c4ccc(OC5CCOCC5)cc4n3C3CCC3)cc2)c1` [Compound 3122] had a melting point of 104 to 107 °C.
